Measured values published in PMC10876669, “Substrate promiscuity of inositol 1,4,5-trisphosphate kinase driven by structurally-modified ligands and active site plasticity” (Nature Communications, 2024).
Values joined by “and” are separate entries in the source; they are usually repeats but may differ in a detail not shown here. Equal entries are not always repeated.

Tests used:
[1] = target: T1, IP3K-KD (human IP3K-KD A isoform, residues 187–461) (Homo sapiens, UniProt P23677); assay: Ligand displacement assay: fluorescence polarization (anisotropy) of 2-FITC-InsP3/IP3K-KD complex; assay type: binding; details: for IC50: 100 nM IP3K-KD, 2 nM 2-FITC-InsP3, 20 mM HEPES pH 7.5, 1 mM EDTA, 50 mM KCl, n=4 replicates, 5-s and 5-p racemic, read-out: IC50, displacement of 2-FITC-InsP3 from IP3K-KD; for Kd: estimated Ki (Kd) from IC50 with [2-FITC-InsP3] 2 nM and its Kd 68 nM, read-out: Kd inferred from IC50 (Cheng and Prusoff)
T1 construct: human IP3K-KD A isoform (residues 187–461); GST (cleaved yes); made in house; host or cells: Escherichia coli BL21 star (DE3)
T1 sequence (P23677 187-461): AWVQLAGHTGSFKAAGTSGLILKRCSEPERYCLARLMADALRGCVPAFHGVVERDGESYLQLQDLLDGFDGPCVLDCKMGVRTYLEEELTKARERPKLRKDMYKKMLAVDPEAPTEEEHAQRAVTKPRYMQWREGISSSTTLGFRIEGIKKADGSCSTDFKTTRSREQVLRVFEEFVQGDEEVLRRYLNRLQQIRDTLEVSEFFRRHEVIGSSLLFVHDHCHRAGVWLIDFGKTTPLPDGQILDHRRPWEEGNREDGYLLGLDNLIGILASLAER
Method: (§1) A construct encoding human IP3K-KD A isoform (residues 187–461) into pOPTG vector was used[16]. The protein was expressed in Escherichia coli BL21 star (DE3) strain. Cells were grown at 37 °C to OD600 = 1.0 then induced with 0.4 mM IPTG for 18 h at 16 °C. Protein purification was performed by adapting the reported protocol. Cells were resuspended in buffer A (10 mM Tris pH 7.5 [4 °C], 200 mM NaCl and 2 mM DTT) and disrupted by sonication. Clarified cell lysate was diluted 1/4 in buffer B (10 mM Tris pH 7.5 [4 °C] and 2 mM DTT) and loaded into a 5 mL HiTrap heparin column (GE Healthcare) washed by buffer C (20 mM Tris pH 7.5, 50 mM NaCl and 2 mM DTT), and eluted with a 0.05 M–1 M salt gradient. The eluted sample was subsequently loaded on to a 5 mL glutathione–Sepharose HP column (GE Healthcare), washed with buffer A and eluted with reduced glutathione 10 mM (Sigma-Aldrich) in buffer A. The GST tag was cleaved with home-made TEV (tobacco etch virus) protease overnight at 4 °C, (1:40 TEV/protein mass ratio). After glutathione removal with a PD10 column, the cleaved protein was further purified using a 5 mL glutathione–Sepharose HP column (GE Healthcare) followed by gel filtration on a 16/600 Superdex200 (GE Healthcare) column equilibrated in buffer D (20 mM Tris pH 7.5 [4 °C], 0.05 M (NH4)2SO4 and 2 mM DTT). Protein samples were analyzed by SDS/PAGE, concentrated around 18 mg/mL and stored at −80 °C until use.
Binding of a competing/displacing ligand to protein is observed as a decrease in the polarization (anisotropy) of 2-FITC-InsP3. A comparison of the strength of binding of enzyme substrates, analogues and products to IP3K-KD was obtained by measurement of fluorescence polarization (here anisotropy) of 2-FITC-InsP3/IP3K-KD complex. Experimentally, 100 nM IP3K-KD was mixed with 2 nM 2-FITC-InsP3[37] in 20 mM HEPES pH 7.5, 1 mM EDTA and 50 mM KCl with the addition of displacing compounds over a range of 1 nM–50 μM. Assays were analyzed using a ClarioSTAR plate reader and IC50 values determined from fit of the data to a 4-parameter logistic as described. From IC50 values, we have estimated the Ki (Kd) values for the displacing ligands using the equation of Cheng and Prusoff:[69]1 Ki=IC50/1+L/Kd where [L] is the ligand (2-FITC-InsP3) concentration and Kd the dissociation constant for its interaction with IP3K-KD. […] Consequently, the Ki values for the displacing ligands differ trivially from their IC50 values.

[2] = target: T1, IP3K-KD (human IP3K-KD A isoform, residues 187–461); assay: Fluorescence thermal shift analysis (Tycho NT.6, inflection temperature Ti); assay type: binding; details: for Ti, transition 1 (mean inflection temperature) / Ti, transition 2 (mean inflection temperature): 10 μM IP3K-KD, 100 μM chiral or 200 μM racemic ligand, AMP-PNP or ADP, 100 μM MgCl2; for Ti, transition 1 (mean inflection temperature) / Ti, transition 2 (mean inflection temperature) / ΔTi, transition 1 / ΔTi, transition 2: mean ± SD, n=3; for ΔTi, transition 1: Ti minus Ti of apo IP3K-KD (44.4); for ΔTi, transition 2: Ti minus Ti of apo IP3K-KD (53.8); for Transition 1 Ti, individual measurement / Transition 2 Ti, individual measurement: source data of Fig. 6b/6c, single replicates; for Transition 1 Dti (Ti-Ti Apo) / Transition 1 Ti Mean / Transition 2 DTi (Ti-Ti Apo) / Transition 2 Ti Mean: source data of Fig. 6c, N 3; for Binding to IP3K (in words): Fig. 6b,c; for Stabilization of IP3K-KD by ligand (in words): thermal shift, Fig. 6c
Method: as §1
Thermal protein denaturation was documented by recording intrinsic protein fluorescence at 330 and 350 nm wavelengths. The fluorescence recorded in each thermal run is plotted as 350/330 nm ratio and used to calculate the Inflection Temperature (Ti). Ti is the temperature at which a protein undergoes a transition in its folding state. This calculation is performed automatically by the Tycho NT.6 software. The protocol optimized for this procedure, involves a heating time of 2 min, a sample volume of 10 μl placed in a very thin capillary, and a temperature ramp from 35 °C (308 K) to 95 °C (368 K). For the experiment, IP3K-KD was diluted with buffer D to achieve a concentration of 0.31 mg/mL (10 μM). It was then mixed with 100 μM of chiral ligands or 200 μM of racemic ligands (all synthesized as stated in this work except InsP3 and InsP4 that were commercial from Avanti Polar Lipids), AMP-PNP (substrate analogues) or ADP (product-like ligands) and 100 μM MgCl2. Microsoft Excel was used to calculate and plot ΔTi values and standard deviations.

SMILES	IC50 [1]	Kd [1] [nM]	Ti, transition 1 (mean inflection temperature) [2]	Ti, transition 2 (mean inflection temperature) [2]	ΔTi, transition 1 [2]	ΔTi, transition 2 [2]	Transition 1 Ti, individual measurement [2]	Transition 2 Ti, individual measurement [2]	Transition 1 Dti (Ti-Ti Apo) [2]	Transition 1 Ti Mean [2]	Transition 2 DTi (Ti-Ti Apo) [2]	Transition 2 Ti Mean [2]	Binding to IP3K (in words) [2]	Stabilization of IP3K-KD by ligand (in words) [2]
O=P(O)(O)O[C@@H]1[C@@H](O)[C@H](OP(=O)(O)O)[C@@H](OP(=O)(O)O)[C@H](OP(=O)(O)O)[C@H]1O [1-p, scyllo-inositol 1,2,3,5-tetrakisphosphate]	51 nM	50	54.7 ± 0.2 ºC	59.9 ± 0.2 ºC	10.3 ± 0.3 ºC	6.1 ± 0.2 ºC	54.7 and 54.9 and 54.6	59.7 and 60.0 and 59.9	10.3	54.7	6.1	59.9	–	–
O=P(O)(O)O[C@@H]1[C@H](O)[C@H](O)[C@@H](OP(=O)(O)O)[C@H](OP(=O)(O)O)[C@H]1O [InsP3, D-myo-inositol 1,4,5-trisphosphate, reference compound]	140 nM and 139 nM	136	52.9 ± 0.2 ºC	58.2 ± 0.2 ºC	8.5 ± 0.3 ºC	4.4 ± 0.2 ºC	52.8 and 52.9 and 53.1	58.1 (2×) and 58.4	8.5	52.9	4.4	58.2	–	–
CO[C@@H]1O[C@H](CO)[C@@H](O[C@H]2O[C@H](CO)[C@@H](OP(=O)(O)O)[C@H](OP(=O)(O)O)[C@H]2O)[C@H]1OP(=O)(O)O [compound 8, ribophostin]	–	–	44.2 ± 0.2 ºC	54.1 ± 0.1 ºC	-0.2 ± 0.3 ºC	0.3 ± 0.2 ºC	44.2 and 44.1 and 44.4	54.1 (2×) and 54.2	-0.167	44.2	0.333	54.1	do not, or barely, bind IP3K	failure to obtain crystal complexes or observe protein stabilization
O=P(O)(O)O[C@@H]1[C@H](O)[C@@H](O)[C@@H](OP(=O)(O)O)[C@H](OP(=O)(O)O)[C@H]1O [4-s, L-chiro-inositol 2,3,5-trisphosphate]	–	–	51.7 ± 0.1 ºC	57.3 ± 0.1 ºC	7.3 ± 0.3 ºC	3.5 ± 0.2 ºC	51.8 and 51.7 (2×)	57.2 and 57.3 (2×)	7.3	51.7	3.5	57.3	–	–
O=P(O)(O)O[C@@H]1[C@@H](O)[C@H](OP(=O)(O)O)C[C@@H](O)[C@H]1OP(=O)(O)O [3-s, D-3-deoxy-myo-inositol 1,4,6-trisphosphate]	–	–	52.0 ± 0.2 ºC	57.4 ± 0.1 ºC	7.6 ± 0.3 ºC	3.6 ± 0.2 ºC	52.1 and 51.8 and 52.0	57.4 (2×) and 57.5	7.6	52.0	3.6	57.4	–	–
O=P(O)(O)O[C@@H]1[C@@H](O)[C@@H](O)[C@@H](OP(=O)(O)O)[C@H](OP(=O)(O)O)[C@H]1O [2-s, D-myo-inositol 1,4,6-trisphosphate]	–	–	53.1 ± 0.3 ºC	58.4 ± 0.2 ºC	8.7 ± 0.4 ºC	4.6 ± 0.2 ºC	53.1 and 52.8 and 53.3	58.2 and 58.5 and 58.4	8.7	53.1	4.6	58.4	–	–
O=P(O)(O)O[C@H]1[C@H](O)[C@@H](OP(=O)(O)O)[C@H](OP(=O)(O)O)[C@@H](OP(=O)(O)O)[C@H]1O [InsP4, D-myo-inositol 1,3,4,5-tetrakisphosphate, reference compound]	60 nM	58	53.5 ± 0.2 ºC	58.8 ± 0.2 ºC	9.1 ± 0.4 ºC	5.0 ± 0.3 ºC	53.7 and 53.3 and 53.5	59.0 and 58.6 and 58.7	9.1	53.5	5.0	58.8	–	–
CO[C@@H]1O[C@H](CO)[C@@H](O[C@H]2[C@H](O)[C@H](O)[C@@H](OP(=O)(O)O)[C@H](OP(=O)(O)O)[C@H]2O)[C@H]1OP(=O)(O)O [compound 9, D-chiro-inositol ribophostin]	–	–	44.5 ± 0.4 ºC	54.5 ± 0.1 ºC	0.1 ± 0.5 ºC	0.7 ± 0.2 ºC	44.2 and 44.9 and 44.5	54.5 (2×) and 54.4	0.133	44.5	0.667	54.5	do not, or barely, bind IP3K	failure to obtain crystal complexes or observe protein stabilization
